The values below come from article PMC6030240 (Molecules and Cells, 2018).

Assay [1] concerns the target T1, Spleen tyrosine kinase (SYK) (Homo sapiens, UniProt P43405). As to the kind of experiment: co-crystal structure at […] Å. It is filed as biochemical.
The target of assay [2] is T1, Spleen tyrosine kinase (SYK). As to the kind of experiment: co-crystal structure at […] Å. It is filed as biochemical. The source holds these as a separate data set.

Like-named read-outs stand apart in the source and are kept apart here.

Broadly, the IC50 is the concentration at which inhibition is half-maximal. High values mean weaker potency, low ones greater potency. Regarding `Cn1ncc2cc(Nc3nc(N4CCC(O)CC4)nc4cc[nH]c(=O)c34)ccc21` [SKI-G-618, 2-(4-hydroxypiperidin-1-yl)-4-((1-methyl-1H-indazol-5-yl)amino)pyrido[4,3-d]pyrimidin-5(6H)-one], it took 17.7 nM to reach half-maximal inhibition in assay [1] (IC50). As for `CS(=O)(=O)c1ccc(Nc2nc(N[C@H]3CCCC[C@@H]3N)nc3cc[nH]c(=O)c23)cc1` [SKI-O-85, (1S,2S)-2-((4-((4-(methylsulfonyl)phenyl)amino)-5-oxo-5,6-dihydropyrido[4,3-d]pyrimidin-2-yl)amino)cyclohexan-1-aminium], half-maximal inhibition in assay [2] (IC50) was put at 211 nM.
